According to PubChem BioAssay AID1963983 (Molecular Pharmacology Branch, DTP, NCI, 2024):
pIC50: −log10 of the molar value.

Test system: 186277-243-T-J2-PDC multi-cell spheroid viability
Experiment: Anticancer human tumor 186277-243-T-J2-PDC patient-derived colon adenocarcinoma cell line growth inhibition [PI3K]
Conditions: for pIC50: curve of first compound; for viability, T/C: stronger effect = lower value
Outline: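 Tumor cells were combined with HUVEC and MSCs into spheroids, then dosed with PI3K-inhibitor combinations over half-log ranges capped near clinical Cmax or 10 microM.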

[1] = second compound 0.0316 µM, first compound 0.0316 µM
[2] = second compound 0.0316 µM, first compound 0.1 µM
[3] = second compound 0.0316 µM, first compound 0.316 µM
[4] = second compound 0.0316 µM, first compound 1 µM
[5] = second compound 0.0316 µM, first compound 3.16 µM
[6] = second compound 0.0316 µM, first compound 10 µM
[7] = second compound 0.1 µM, first compound 0.0316 µM
[8] = second compound 0.1 µM, first compound 0.1 µM
[9] = second compound 0.1 µM, first compound 0.316 µM
[10] = second compound 0.1 µM, first compound 1 µM
[11] = second compound 0.1 µM, first compound 3.16 µM
[12] = second compound 0.1 µM, first compound 10 µM
[13] = second compound 0.316 µM, first compound 0.0316 µM
[14] = second compound 0.316 µM, first compound 0.1 µM
[15] = second compound 0.316 µM, first compound 0.316 µM
[16] = second compound 0.316 µM, first compound 1 µM
[17] = second compound 0.316 µM, first compound 3.16 µM
[18] = second compound 0.316 µM, first compound 10 µM
[19] = second compound 1 µM, first compound 0.0316 µM
[20] = second compound 1 µM, first compound 0.1 µM
[21] = second compound 1 µM, first compound 0.316 µM
[22] = second compound 1 µM, first compound 1 µM
[23] = second compound 1 µM, first compound 3.16 µM
[24] = second compound 1 µM, first compound 10 µM
[25] = second compound 3.16 µM, first compound 0.0316 µM
[26] = second compound 3.16 µM, first compound 0.1 µM
[27] = second compound 3.16 µM, first compound 0.316 µM
[28] = second compound 3.16 µM, first compound 1 µM
[29] = second compound 3.16 µM, first compound 3.16 µM
[30] = second compound 3.16 µM, first compound 10 µM
[31] = second compound 10 µM, first compound 0.0316 µM
[32] = second compound 10 µM, first compound 0.1 µM
[33] = second compound 10 µM, first compound 0.316 µM
[34] = second compound 10 µM, first compound 1 µM
[35] = second compound 10 µM, first compound 3.16 µM
[36] = second compound 10 µM, first compound 10 µM
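Note: spheroids exposed to compounds for seven days before viability reading.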
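Throughout, for viability, T/C: 100% = DMSO vehicle control viability.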

SMILES: C#Cc1c(F)ccc2cc(O)cc(-c3ncc4c(N5CC6CCC(C5)N6)nc(OCC56CCCN5CC(F)C6)nc4c3F)c12 (stereo unspecified) + Cc1nc(NC(=O)N2CCCC2C(N)=O)sc1-c1ccnc(C(C)(C)C(F)(F)F)c1
- pIC50 (second compound 0.0316 µM): 7.13
- pIC50 (second compound 0.1 µM): 7.33
- pIC50 (second compound 0.316 µM): > 7.50
- pIC50 (second compound 1 µM): > 7.50
- pIC50 (second compound 3.16 µM): > 7.50
- pIC50 (second compound 10 µM): > 7.50
- viability, T/C [1]: 84.8%
- viability, T/C [2]: 37.5%
- viability, T/C [3]: 20%
- viability, T/C [4]: 13.5%
- viability, T/C [5]: 10.9%
- viability, T/C [6]: 9.63%
- viability, T/C [7]: 60.6%
- viability, T/C [8]: 29.4%
- viability, T/C [9]: 15.1%
- viability, T/C [10]: 11.4%
- viability, T/C [11]: 8.35%
- viability, T/C [12]: 7.01%
- viability, T/C [13]: 30.4%
- viability, T/C [14]: 15.5%
- viability, T/C [15]: 7.34%
- viability, T/C [16]: 12.6%
- viability, T/C [17]: 6.32%
- viability, T/C [18]: 6.56%
- viability, T/C [19]: 17.2%
- viability, T/C [20]: 9.55%
- viability, T/C [21]: 10.3%
- viability, T/C [22]: 6.06%
- viability, T/C [23]: 4.61%
- viability, T/C [24]: 1.79%
- viability, T/C [25]: 12.9%
- viability, T/C [26]: 5.57%
- viability, T/C [27]: 3.63%
- viability, T/C [28]: 4.54%
- viability, T/C [29]: 3.29%
- viability, T/C [30]: 1.25%
- viability, T/C [31]: 3.63%
- viability, T/C [32]: 3.77%
- viability, T/C [33]: 2.79%
- viability, T/C [34]: 2%
- viability, T/C [35]: 0.83%
- viability, T/C [36]: 0.22%

SMILES: Cn1nccc1Nc1nccc(-c2ccn(C(CO)c3ccc(Cl)c(F)c3)c(=O)c2)n1 (stereo unspecified) + Cc1nc(NC(=O)N2CCCC2C(N)=O)sc1-c1ccnc(C(C)(C)C(F)(F)F)c1
- pIC50 (second compound 0.0316 µM): 5.74
- pIC50 (second compound 0.1 µM): 5.92
- pIC50 (second compound 0.316 µM): 6.17
- pIC50 (second compound 1 µM): 6.82
- pIC50 (second compound 3.16 µM): > 7.50
- pIC50 (second compound 10 µM): > 7.50
- viability, T/C [1]: 89%
- viability, T/C [2]: 104%
- viability, T/C [3]: 117%
- viability, T/C [4]: 71.3%
- viability, T/C [5]: 34.2%
- viability, T/C [6]: 18.5%
- viability, T/C [7]: 91.8%
- viability, T/C [8]: 108%
- viability, T/C [9]: 99.5%
- viability, T/C [10]: 53.8%
- viability, T/C [11]: 30.9%
- viability, T/C [12]: 22.5%
- viability, T/C [13]: 105%
- viability, T/C [14]: 100%
- viability, T/C [15]: 76.2%
- viability, T/C [16]: 34.8%
- viability, T/C [17]: 20.5%
- viability, T/C [18]: 9.74%
- viability, T/C [19]: 94.9%
- viability, T/C [20]: 61.1%
- viability, T/C [21]: 30.9%
- viability, T/C [22]: 13.9%
- viability, T/C [23]: 14%
- viability, T/C [24]: 6.14%
- viability, T/C [25]: 47.4%
- viability, T/C [26]: 29.6%
- viability, T/C [27]: 15%
- viability, T/C [28]: 5.96%
- viability, T/C [29]: 8.12%
- viability, T/C [30]: 2.21%
- viability, T/C [31]: 9.88%
- viability, T/C [32]: 9.03%
- viability, T/C [33]: 8.27%
- viability, T/C [34]: 8.15%
- viability, T/C [35]: 1.39%
- viability, T/C [36]: 2.02%

SMILES: CCCS(=O)(=O)Nc1ccc(F)c(C(=O)c2c[nH]c3ncc(-c4ccc(Cl)cc4)cc23)c1F + COc1c(OCCCN2CCOCC2)ccc2c3n(c(=NC(=O)c4cnc(N)nc4)nc12)CCN3
- pIC50 (second compound 0.00316 µM): 5.31
- pIC50 (second compound 0.01 µM): 5.25
- pIC50 (second compound 0.0316 µM): 5.29
- pIC50 (second compound 0.1 µM): > 7.50
- pIC50 (second compound 0.316 µM): > 7.50
- pIC50 (second compound 1 µM): > 7.50
- viability, T/C (second compound 0.00316 µM, first compound 0.0316 µM): 114%
- viability, T/C (second compound 0.00316 µM, first compound 0.1 µM): 99.1%
- viability, T/C (second compound 0.00316 µM, first compound 0.316 µM): 84.9%
- viability, T/C (second compound 0.00316 µM, first compound 1 µM): 83.5%
- viability, T/C (second compound 0.00316 µM, first compound 3.16 µM): 79.4%
- viability, T/C (second compound 0.00316 µM, first compound 10 µM): 14.2%
- viability, T/C (second compound 0.01 µM, first compound 0.0316 µM): 105%
- viability, T/C (second compound 0.01 µM, first compound 0.1 µM): 90.1%
- viability, T/C (second compound 0.01 µM, first compound 0.316 µM): 110%
- viability, T/C (second compound 0.01 µM, first compound 1 µM): 90.3%
- viability, T/C (second compound 0.01 µM, first compound 3.16 µM): 87%
- viability, T/C (second compound 0.01 µM, first compound 10 µM): 13.8%
- viability, T/C [1]: 81.1%
- viability, T/C [2]: 68.5%
- viability, T/C [3]: 96.3%
- viability, T/C [4]: 88.2%
- viability, T/C [5]: 77.9%
- viability, T/C [6]: 12.2%
- viability, T/C [7]: 23.1%
- viability, T/C [8]: 27.3%
- viability, T/C [9]: 29.4%
- viability, T/C [10]: 46.7%
- viability, T/C [11]: 46%
- viability, T/C [12]: 7.08%
- viability, T/C [13]: 7.65%
- viability, T/C [14]: 8.23%
- viability, T/C [15]: 7.39%
- viability, T/C [16]: 8.35%
- viability, T/C [17]: 12.3%
- viability, T/C [18]: 2.99%
- viability, T/C [19]: 3.27%
- viability, T/C [20]: 3.82%
- viability, T/C [21]: 3.96%
- viability, T/C [22]: 4.58%
- viability, T/C [23]: 7.64%
- viability, T/C [24]: 2.38%
